Results from publication PMC9098912, “Molecular basis for inhibiting human glucose transporters by exofacial inhibitors” (Nature Communications, 2022).
Changes are numbered by the printed parent chain.

Tests used:
[1] = target: T1, GLUT3exo (GLUT3 S64W and I305W) (Homo sapiens, UniProt P11169, I305W/N43T/S64W); test: biochemical; assay type: binding; conditions: for Figure 2c: MST binding curve, Mean: GLUT3 dTrp mutant, log[SA47]
T1 construct: His10 (N); made in house; host or cells: Sf9 insect cells (baculovirus)
Experimental: Following the same principle for the engineering of XylE-WW, we introduced two Trp substitutions, S64W and I305W, on the extracellular segments of TM2 and TM8 of GLUT3, respectively. This variant will be referred to as GLUT3exo hereafter (Fig. 1a). The two bulky substituents were expected to trap GLUT3 in an outward-facing conformation.
(§1) All mutants were generated by standard PCR-based strategy.
(§2) Inhibitors with serial dilutions were mixed with indicated protein. […] MST analyses were conducted on a Monolith NT. […] The MST data was analyzed by Monolith NT.115.

GLUT3 W386A = target: T2, GLUT3 W386A (Homo sapiens, UniProt P11169, N43T/W386A); test: MST binding assay, GLUT3 variant; conditions: read-out: Kd of SA47
T2 construct: His10 (N); made in house; host or cells: Sf9 insect cells (baculovirus)
T2 sequence (P11169 1-496 N43T/W386A): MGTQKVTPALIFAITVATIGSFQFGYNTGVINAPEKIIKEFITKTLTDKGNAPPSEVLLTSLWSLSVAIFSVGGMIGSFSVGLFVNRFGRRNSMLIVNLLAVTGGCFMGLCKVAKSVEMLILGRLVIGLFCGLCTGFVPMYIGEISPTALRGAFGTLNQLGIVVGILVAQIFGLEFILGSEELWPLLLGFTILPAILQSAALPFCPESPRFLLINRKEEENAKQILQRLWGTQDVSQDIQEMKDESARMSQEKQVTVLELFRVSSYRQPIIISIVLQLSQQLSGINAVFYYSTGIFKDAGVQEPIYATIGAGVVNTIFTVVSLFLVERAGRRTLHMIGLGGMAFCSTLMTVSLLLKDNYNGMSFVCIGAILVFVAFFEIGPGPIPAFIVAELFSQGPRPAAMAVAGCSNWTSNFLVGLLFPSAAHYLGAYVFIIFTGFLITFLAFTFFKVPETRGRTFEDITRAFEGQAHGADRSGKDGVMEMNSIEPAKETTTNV
Experimental: as §1, §2

GLUT1 = target: T3, GLUT1 (Homo sapiens, UniProt P11166, N45T); test: Microscale thermophoresis (MST) binding assay; conditions: for Figure 2c: MST binding curve, Mean: log[SA47]
T3 construct: made in house
T3 sequence (P11166 1-492 N45T): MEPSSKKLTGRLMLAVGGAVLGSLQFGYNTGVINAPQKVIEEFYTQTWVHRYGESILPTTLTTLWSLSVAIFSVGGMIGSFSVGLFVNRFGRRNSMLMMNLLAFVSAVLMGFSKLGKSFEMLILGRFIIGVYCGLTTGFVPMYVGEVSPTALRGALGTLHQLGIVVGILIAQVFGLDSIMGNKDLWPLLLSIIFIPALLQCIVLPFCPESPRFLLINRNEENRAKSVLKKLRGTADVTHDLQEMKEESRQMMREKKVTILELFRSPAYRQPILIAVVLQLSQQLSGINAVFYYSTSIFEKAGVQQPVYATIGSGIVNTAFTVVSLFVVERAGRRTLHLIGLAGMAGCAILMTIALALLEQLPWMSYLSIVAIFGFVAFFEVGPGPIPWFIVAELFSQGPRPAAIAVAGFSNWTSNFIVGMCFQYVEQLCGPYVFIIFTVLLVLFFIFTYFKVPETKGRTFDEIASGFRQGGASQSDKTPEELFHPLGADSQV
Experimental: as §1, §2

WT GLUT3 = target: T4, WT GLUT3 (Homo sapiens, UniProt P11169, N43T); test: Microscale thermophoresis (MST) binding assay; set-up: Figure 1e middle: MST binding curve, Mean / Figure 1e right: MST binding curve, Mean / Figure 2c: MST binding curve, Mean: unit not given here; conditions: for Figure 2c: MST binding curve, Mean: GLUT3, log[SA47]
T4 construct: His10 (N); made in house; host or cells: Sf9 insect cells (baculovirus)
T4 sequence (P11169 1-496 N43T): T2 sequence (P11169 1-496 N43T/W386A) with A386W
Experimental: as §1, §2

T1 sequence (P11169 whole entry N43T/S64W/I305W): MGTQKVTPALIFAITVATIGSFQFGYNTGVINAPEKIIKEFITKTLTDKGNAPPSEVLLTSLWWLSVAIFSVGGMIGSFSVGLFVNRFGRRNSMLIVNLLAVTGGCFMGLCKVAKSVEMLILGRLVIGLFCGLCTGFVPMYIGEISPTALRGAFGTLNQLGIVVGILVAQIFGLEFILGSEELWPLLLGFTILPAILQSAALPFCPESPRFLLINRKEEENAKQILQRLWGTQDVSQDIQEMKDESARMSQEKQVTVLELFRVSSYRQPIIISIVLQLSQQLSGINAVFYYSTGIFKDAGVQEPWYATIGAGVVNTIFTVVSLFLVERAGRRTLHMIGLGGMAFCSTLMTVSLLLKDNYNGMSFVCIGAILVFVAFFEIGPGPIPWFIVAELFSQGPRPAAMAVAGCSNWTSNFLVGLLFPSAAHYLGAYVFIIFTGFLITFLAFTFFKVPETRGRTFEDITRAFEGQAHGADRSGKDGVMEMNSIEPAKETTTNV

## COC(=O)CCNCc1ccccc1-n1ncc2c(N3CCN(c4cc(F)ccc4OC)CC3)ncnc21 [SA47]
[1]
  Kd: 314 ± 80.7 nM
[1]; M -4.60206
  Figure 2c: MST binding curve, Mean: 107.845
[1]; M -4.90309
  Figure 2c: MST binding curve, Mean: 92.9206
[1]; M -5.20412
  Figure 2c: MST binding curve, Mean: 96.8426
[1]; M -5.50515
  Figure 2c: MST binding curve, Mean: 85.0858
[1]; M -5.80618
  Figure 2c: MST binding curve, Mean: 74.1558
[1]; M -6.10721
  Figure 2c: MST binding curve, Mean: 60.9811
[1]; M -6.40824
  Figure 2c: MST binding curve, Mean: 46.911
[1]; M -6.70927
  Figure 2c: MST binding curve, Mean: 34.266
[1]; M -7.31133
  Figure 2c: MST binding curve, Mean: -0.7525
[1]; M -7.61236
  Figure 2c: MST binding curve, Mean: 4.6276
[1]; M -7.91339
  Figure 2c: MST binding curve, Mean: 1.8858
[1]; M -8.21442
  Figure 2c: MST binding curve, Mean: 1.3955
[1]; M -8.51545
  Figure 2c: MST binding curve, Mean: 4.478
[1]; M -8.81648
  Figure 2c: MST binding curve, Mean: -6.1144
GLUT3 W386A
  Kd: 30300 ± 10700 nM
GLUT1
  Kd: 310 ± 58.2 nM
GLUT1; M -4.90309
  Figure 2c: MST binding curve, Mean: 102.821
GLUT1; M -5.20412
  Figure 2c: MST binding curve, Mean: 94.0406
GLUT1; M -5.50515
  Figure 2c: MST binding curve, Mean: 85.0371
GLUT1; M -5.80618
  Figure 2c: MST binding curve, Mean: 78.9623
GLUT1; M -6.10721
  Figure 2c: MST binding curve, Mean: 63.517
GLUT1; M -6.40824
  Figure 2c: MST binding curve, Mean: 44.2639
GLUT1; M -6.70927
  Figure 2c: MST binding curve, Mean: 30.0958
GLUT1; M -7.0103
  Figure 2c: MST binding curve, Mean: 11.0052
GLUT1; M -7.31133
  Figure 2c: MST binding curve, Mean: 3.8567
GLUT1; M -7.61236
  Figure 2c: MST binding curve, Mean: 3.527
GLUT1; M -7.91339
  Figure 2c: MST binding curve, Mean: -1.6488
GLUT1; M -8.21442
  Figure 2c: MST binding curve, Mean: -3.8284
GLUT1; M -8.51545
  Figure 2c: MST binding curve, Mean: 7.0621
GLUT1; M -8.81648
  Figure 2c: MST binding curve, Mean: 2.3819
WT GLUT3; M -4.30103
  Figure 2c: MST binding curve, Mean: 93.1623
WT GLUT3; M -4.60206
  Figure 2c: MST binding curve, Mean: 97.5688
WT GLUT3; M -4.90309
  Figure 2c: MST binding curve, Mean: 103.147
WT GLUT3; M -5.20412
  Figure 2c: MST binding curve, Mean: 93.0436
WT GLUT3; M -5.50515
  Figure 2c: MST binding curve, Mean: 92.2406
WT GLUT3; M -5.80618
  Figure 2c: MST binding curve, Mean: 84.0843
WT GLUT3; M -6.10721
  Figure 2c: MST binding curve, Mean: 63.9676
WT GLUT3; M -6.40824
  Figure 2c: MST binding curve, Mean: 36.3211
WT GLUT3; M -7.0103
  Figure 2c: MST binding curve, Mean: 13.9692
WT GLUT3; M -7.31133
  Figure 2c: MST binding curve, Mean: 8.298
WT GLUT3; M -7.61236
  Figure 2c: MST binding curve, Mean: 1.1474
WT GLUT3; M -7.91339
  Figure 2c: MST binding curve, Mean: 0.7084
WT GLUT3; M -8.21442
  Figure 2c: MST binding curve, Mean: 2.7164
WT GLUT3; M -8.51545
  Figure 2c: MST binding curve, Mean: 2.4811
WT GLUT3; M -8.81648
  Figure 2c: MST binding curve, Mean: 1.1039
WT GLUT3; WT GLUT3
  Kd: 317 ± 47.2 nM
